Assay results from PubChem BioAssay (NCI).
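Test compounds were applied to cells in 96-well plates for 48 hours at 5 doses. Here, GI50 denotes the concentration required for 50% inhibition of growth. TGI denotes the concentration required for complete inhibition of growth.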

Assays:
Experiment in all cases: DTP human tumour cell line panel, 48 h
MDA-MB-435 = test system: MDA-MB-435
RXF 393 renal = test system: RXF 393 renal
IGROV1 ovarian = test system: IGROV1 ovarian
NCI/ADR-RES ovarian = test system: NCI/ADR-RES ovarian
HOP-62 NSCLC = test system: HOP-62 NSCLC
UACC-62 melanoma = test system: UACC-62 melanoma
SF-268 CNS = test system: SF-268 CNS
MOLT-4 leukemia = test system: MOLT-4 leukemia
SK-MEL-28 melanoma = test system: SK-MEL-28 melanoma
ACHN renal = test system: ACHN renal
NCI-H23 lung = test system: NCI-H23 lung
SR leukemia = test system: SR leukemia
CAKI-1 renal = test system: CAKI-1 renal
NCI-H460 lung = test system: NCI-H460 lung
RPMI-8226 leukemia = test system: RPMI-8226 leukemia
SNB-75 CNS = test system: SNB-75 CNS
SW-620 colon = test system: SW-620 colon
786-0 renal = test system: 786-0 renal
SK-MEL-2 melanoma = test system: SK-MEL-2 melanoma
HL-60(TB) leukemia = test system: HL-60(TB) leukemia
OVCAR-4 ovarian = test system: OVCAR-4 ovarian
M14 melanoma = test system: M14 melanoma
U251 CNS = test system: U251 CNS
OVCAR-5 ovarian = test system: OVCAR-5 ovarian
K-562 leukemia = test system: K-562 leukemia
T-47D breast = test system: T-47D breast
COLO 205 colon = test system: COLO 205 colon
CCRF-CEM leukemia = test system: CCRF-CEM leukemia
A549 NSCLC = test system: A549 NSCLC
MALME-3M melanoma = test system: MALME-3M melanoma
MCF7 breast = test system: MCF7 breast
SK-OV-3 ovarian = test system: SK-OV-3 ovarian
SK-MEL-5 melanoma = test system: SK-MEL-5 melanoma
UO-31 renal = test system: UO-31 renal
OVCAR-8 ovarian = test system: OVCAR-8 ovarian
OVCAR-3 ovarian = test system: OVCAR-3 ovarian
SF-295 CNS = test system: SF-295 CNS
PC-3 prostate = test system: PC-3 prostate
KM12 colon = test system: KM12 colon
HOP-92 NSCLC = test system: HOP-92 NSCLC
HCT-15 colon = test system: HCT-15 colon
BT-549 breast = test system: BT-549 breast
SNB-19 CNS = test system: SNB-19 CNS
TK-10 renal = test system: TK-10 renal
EKVX NSCLC = test system: EKVX NSCLC
HT29 colon = test system: HT29 colon
LOX IMVI melanoma = test system: LOX IMVI melanoma
HCT-116 colon = test system: HCT-116 colon
DU-145 prostate = test system: DU-145 prostate
HS 578T breast = test system: HS 578T breast
UACC-257 melanoma = test system: UACC-257 melanoma
NCI-H522 lung = test system: NCI-H522 lung
NCI-H226 lung = test system: NCI-H226 lung
HCC-2998 colon = test system: HCC-2998 colon
SF-539 CNS = test system: SF-539 CNS

Compound: COc1ccc(-c2coc3cc(O)cc(O)c3c2=O)cc1
- TGI (MDA-MB-435): > 10 µM
- TGI (RXF 393 renal): > 10 µM
- TGI (IGROV1 ovarian): > 10 µM
- TGI (NCI/ADR-RES ovarian): > 10 µM
- TGI (HOP-62 NSCLC): > 10 µM
- TGI (UACC-62 melanoma): > 10 µM
- TGI (SF-268 CNS): > 10 µM
- TGI (MOLT-4 leukemia): > 10 µM
- TGI (SK-MEL-28 melanoma): > 10 µM
- TGI (ACHN renal): > 10 µM
- TGI (NCI-H23 lung): > 10 µM
- TGI (SR leukemia): > 10 µM
- TGI (CAKI-1 renal): > 10 µM
- TGI (NCI-H460 lung): > 10 µM
- TGI (RPMI-8226 leukemia): > 10 µM
- TGI (SNB-75 CNS): > 10 µM
- TGI (SW-620 colon): > 10 µM
- TGI (786-0 renal): > 10 µM
- TGI (SK-MEL-2 melanoma): > 10 µM
- TGI (HL-60(TB) leukemia): > 10 µM
- TGI (OVCAR-4 ovarian): > 10 µM
- TGI (M14 melanoma): > 10 µM
- TGI (U251 CNS): > 10 µM
- TGI (OVCAR-5 ovarian): > 10 µM
- TGI (K-562 leukemia): > 10 µM
- TGI (T-47D breast): > 10 µM
- TGI (COLO 205 colon): > 10 µM
- TGI (CCRF-CEM leukemia): > 10 µM
- TGI (A549 NSCLC): > 10 µM
- TGI (MALME-3M melanoma): > 10 µM
- TGI (MCF7 breast): > 10 µM
- TGI (SK-OV-3 ovarian): > 10 µM
- TGI (SK-MEL-5 melanoma): > 10 µM

Compound: N#Cc1c2ccccc2c2nnc3ccccc3n12
- GI50 (MDA-MB-435): 33.5 µM
- TGI (MDA-MB-435): > 100 µM
- GI50 (IGROV1 ovarian): 19.3 µM
- TGI (IGROV1 ovarian): 92.2 µM
- GI50 (HOP-62 NSCLC): 24.4 µM
- TGI (HOP-62 NSCLC): 60.1 µM
- GI50 (UO-31 renal): 20 µM
- TGI (UO-31 renal): > 100 µM
- GI50 (SF-268 CNS): 50 µM
- TGI (SF-268 CNS): > 100 µM
- GI50 (OVCAR-8 ovarian): 11.1 µM
- TGI (OVCAR-8 ovarian): 45.9 µM
- GI50 (MOLT-4 leukemia): 47.1 µM
- TGI (MOLT-4 leukemia): > 100 µM
- GI50 (SK-MEL-28 melanoma): 78.6 µM
- TGI (SK-MEL-28 melanoma): > 100 µM
- GI50 (OVCAR-3 ovarian): 59.7 µM
- TGI (OVCAR-3 ovarian): > 100 µM
- GI50 (SF-295 CNS): 49 µM
- TGI (SF-295 CNS): > 100 µM
- GI50 (ACHN renal): 19.3 µM
- TGI (ACHN renal): 61.2 µM
- GI50 (PC-3 prostate): 63.5 µM
- TGI (PC-3 prostate): > 100 µM
- GI50 (KM12 colon): 48.7 µM
- TGI (KM12 colon): > 100 µM
- GI50 (SR leukemia): 32.7 µM
- TGI (SR leukemia): > 100 µM
- GI50 (CAKI-1 renal): 34.8 µM
- TGI (CAKI-1 renal): > 100 µM
- GI50 (NCI-H460 lung): 31.9 µM
- TGI (NCI-H460 lung): > 100 µM
- GI50 (RPMI-8226 leukemia): > 100 µM
- TGI (RPMI-8226 leukemia): > 100 µM
- GI50 (SNB-75 CNS): 28.3 µM
- TGI (SNB-75 CNS): > 100 µM
- GI50 (SW-620 colon): 23.1 µM
- TGI (SW-620 colon): 91.8 µM
- GI50 (786-0 renal): 53.2 µM
- TGI (786-0 renal): > 100 µM
- GI50 (HL-60(TB) leukemia): > 100 µM
- TGI (HL-60(TB) leukemia): > 100 µM
- GI50 (HOP-92 NSCLC): > 100 µM
- TGI (HOP-92 NSCLC): > 100 µM
- GI50 (HCT-15 colon): 21.5 µM
- TGI (HCT-15 colon): > 100 µM
- GI50 (BT-549 breast): 12 µM
- TGI (BT-549 breast): 45.1 µM
- GI50 (OVCAR-4 ovarian): > 100 µM
- TGI (OVCAR-4 ovarian): > 100 µM
- GI50 (M14 melanoma): 14.9 µM
- TGI (M14 melanoma): 62.4 µM
- GI50 (SNB-19 CNS): 41.1 µM
- TGI (SNB-19 CNS): > 100 µM
- GI50 (TK-10 renal): 31.7 µM
- TGI (TK-10 renal): > 100 µM
- GI50 (U251 CNS): 17.7 µM
- TGI (U251 CNS): 70 µM
- GI50 (EKVX NSCLC): 12.6 µM
- TGI (EKVX NSCLC): 72.1 µM
- GI50 (K-562 leukemia): 81.9 µM
- TGI (K-562 leukemia): > 100 µM
- GI50 (T-47D breast): > 100 µM
- TGI (T-47D breast): > 100 µM
- GI50 (HT29 colon): 42.6 µM
- TGI (HT29 colon): > 100 µM
- GI50 (COLO 205 colon): 9.32 µM
- TGI (COLO 205 colon): > 100 µM
- GI50 (LOX IMVI melanoma): 6.47 µM
- TGI (LOX IMVI melanoma): 25.2 µM
- GI50 (HCT-116 colon): 28 µM
- TGI (HCT-116 colon): > 100 µM
- GI50 (A549 NSCLC): 13.5 µM
- TGI (A549 NSCLC): 36.7 µM
- GI50 (MALME-3M melanoma): > 100 µM
- TGI (MALME-3M melanoma): > 100 µM
- GI50 (MCF7 breast): 14.2 µM
- TGI (MCF7 breast): 52.4 µM
- GI50 (SK-OV-3 ovarian): > 100 µM
- TGI (SK-OV-3 ovarian): > 100 µM
- GI50 (DU-145 prostate): 26.8 µM
- TGI (DU-145 prostate): > 100 µM

Compound: Cc1cc(C)c(NC(=O)/C=C/c2ccccc2)c(C)c1
- TGI (MDA-MB-435): > 100 µM
- TGI (RXF 393 renal): > 100 µM
- TGI (IGROV1 ovarian): > 100 µM
- TGI (HS 578T breast): > 100 µM
- TGI (UACC-257 melanoma): > 100 µM
- TGI (NCI/ADR-RES ovarian): > 100 µM
- TGI (HOP-62 NSCLC): > 100 µM
- TGI (UO-31 renal): > 100 µM
- TGI (UACC-62 melanoma): 93.8 µM
- TGI (SF-268 CNS): > 100 µM
- TGI (OVCAR-8 ovarian): > 100 µM
- TGI (MOLT-4 leukemia): > 100 µM
- TGI (SK-MEL-28 melanoma): > 100 µM
- TGI (NCI-H522 lung): 61.8 µM
- TGI (OVCAR-3 ovarian): > 100 µM
- TGI (SF-295 CNS): > 100 µM
- TGI (ACHN renal): > 100 µM
- TGI (PC-3 prostate): > 100 µM
- TGI (NCI-H23 lung): > 100 µM
- TGI (NCI-H226 lung): > 100 µM
- TGI (KM12 colon): > 100 µM
- TGI (SR leukemia): > 100 µM
- TGI (NCI-H460 lung): > 100 µM
- TGI (RPMI-8226 leukemia): > 100 µM
- TGI (SNB-75 CNS): > 100 µM
- TGI (SW-620 colon): > 100 µM
- TGI (SK-MEL-2 melanoma): > 100 µM
- TGI (HL-60(TB) leukemia): > 100 µM
- TGI (HCC-2998 colon): > 100 µM
- TGI (HOP-92 NSCLC): > 100 µM
- TGI (HCT-15 colon): > 100 µM
- TGI (BT-549 breast): > 100 µM
- TGI (OVCAR-4 ovarian): > 100 µM
- TGI (M14 melanoma): > 100 µM
- TGI (SNB-19 CNS): > 100 µM
- TGI (TK-10 renal): > 100 µM
- TGI (U251 CNS): > 100 µM
- TGI (OVCAR-5 ovarian): > 100 µM
- TGI (SF-539 CNS): > 100 µM
- TGI (EKVX NSCLC): > 100 µM
- TGI (K-562 leukemia): > 100 µM
- TGI (HT29 colon): > 100 µM
- TGI (CCRF-CEM leukemia): > 100 µM
- TGI (A549 NSCLC): > 100 µM
- TGI (MCF7 breast): > 100 µM
- TGI (SK-OV-3 ovarian): > 100 µM
